Patent publication US9360486B2, “Allergen fragments” (Biomay AG, priority 2007, dated 2016)
Several values for one entry are separate records, joined by “and”; a condition that tells them apart may be missing. Identical values can stand only once. Entries after “also recorded” stand apart in the source; their conditions may differ.

Key:
[1] = system: Amb a 1-specific T cell lines (TCL); assay: T cell epitope mapping of Amb a 1.3: proliferation (3H-thymidine uptake) of TCL stimulated with synthetic peptides; assay type: cell-based, human; settings: for No. positive patients SI > 3 / No. positive patients SI > 5 / % (positive patients SI > 3) / % (positive patients SI > 5): TCL from 48 ragweed pollen-allergic patients, peptide 5 μg/ml; for No. positive patients SI > 3 / No. positive patients SI > 5: 3H-thymidine uptake after 48 hrs; for No. positive patients SI > 3 / % (positive patients SI > 3): stimulation index > 3; for No. positive patients SI > 5 / % (positive patients SI > 5): stimulation index > 5
Outline: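 Amb a 1-specific TCL from ragweed-allergic patients, raised with ragweed extract or rAmb a 1.3, stimulated 48 h with 121 overlapping 12-mer peptides plus one C-terminal 13-mer (9-residue overlap) at 5 μg/ml. Proliferation by 3H-thymidine uptake; SI against the mean cpm of the ten least stimulating peptides, epitope when SI ≥3.0.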

[2] = system: IgE of sera from ragweed allergic patients; assay: Human IgE ELISA of purified alpha chain; assay type: binding; settings: modified (version 1) alpha chain of Amb a 1.3; 12 patients (FIG. 19)
Excerpt: If a peptide of the invention is to be used as a diagnostic reagent, it is not necessary that the peptide or protein has reduced IgE binding activity compared to the native Amb a 1 allergen. IgE binding activity of peptides can be determined by, for example, an enzyme linked immunosorbent assay (ELISA) using, for example, sera obtained from an individual (i.e. an allergic individual) that has been previously exposed to the native Amb a 1. Briefly, a peptide to be tested is coated onto wells of a microtiter plate. After washing and blocking the wells, antibody solution consisting of the serum or plasma of an allergic individual who has been exposed to the peptide being tested or the protein from which it was derived is incubated in the wells. The plasma is generally depleted of IgG before incubation. However, the depletion is not necessary if highly specific anti IgE-antibodies are used. Furthermore, allergic individuals who have not undergone specific immunotherapy have in some cases almost no detectable IgG antibodies specific for the allergen in question. […] The amount of IgE binding is then quantified and compared to the amount of IgE bound by a purified native Amb a 1 protein. Alternatively, the binding activity of a peptide can be determined by Western blot analysis. […] After incubation with the labelled secondary antibody, the amount of IgE bound is then determined and quantified. […]

[3] = system: Amb a 1-specific TCL and TCC; assay: Proliferation of Amb a 1-specific TCL and TCC with allergens and chains; assay type: cell-based, human; settings: modified (version 1) chains of Amb a 1.3
Protocol: Peripheral blood mononuclear cells (PBMC) were isolated from heparinized blood of allergic patients by Ficoll density gradient centrifugation. To generate allergen-specific T cell lines (TCL) and T cell clones (TCC), 1.5×10^6 PBMC were stimulated with optimal doses of ragweed or mugwort extract (4 μg/ml) or rAmb a 1.3 (10 μg/ml) in 24-well flat-bottomed culture plates (Costar, USA). After 5 days human rIL-2 (10 U/ml, Boehringer, Mannheim, Germany) were added and cultures were continued for additional 7 days. Then, T cell blasts were isolated by density centrifugation. The majority of T cell blasts was further expanded with IL-2 and irradiated PBMC. A small number of T cell blasts were used to establish monoclonal T cell cultures by limiting dilution: 0.3 T cells/well were seeded into 96 well round bottom plates (Nunclone) in the presence of 2×10^5 irradiated (60 Gy) PBMC, 0.25% v/v PHA (Gibco, USA) and rIL-2 (4 U/well) in the medium mentioned above. After 14-21 days, growing microcultures were expanded at weekly intervals with irradiated PBMC and rIL-2. The specificity of TCC was assessed in proliferation assays using irradiated allogeneic or HLA-matched PBMC or irradiated EBV-transformed allogeneic B-cells and 5 μg/ml Amb a 1.3. After 48 hours, cellular uptake of tritiated (^3H)-thymidine was performed to measure proliferation in counts per minute (cpm). When the stimulation index (SI; ratio between cpm obtained in cultures containing TCC plus autologous APC plus antigen, and cpm obtained in cultures containing TCC and APC alone) was >10, responses were considered as positive. Allergen-specific TCC were expanded by alternating turns of stimulation with autologous irradiated APC and allergen or with allogeneic feeder cells and rIL-2.
Proliferation and cytokine responses were determined.
When compared with the results of the T cell epitope recognition in Table 3, 45/46 patients (98%) would recognize one or more epitopes in the Amb a 1 alpha-chain. […]

[4] = system: IgE of sera from ragweed pollen allergic patients; assay: SDS-PAGE IgE immunoblot with patients' sera; assay type: binding, human
Protocol: Membrane strips were incubated with sera from ragweed pollen allergic patients (lanes 1-29) or with serum from a non-allergic donor (lane C). Bound IgE was detected with ^125I-labeled goat anti-human IgE. Ragweed pollen-sensitized patients were recruited in Austria (lanes 1-13) or in Italy (lanes 14-29).
The proteins were analyzed via SDS-PAGE using 15% acrylamide gels and 0.1% Coomassie staining with a molecular weight standard RPN 756 (GE Healthcare Life Sciences). Sera from allergic patients were tested for positive IgE-reactivity. rAmb a 1 and rArt v 6 were separated on 15% (w/w) polyacrylamide gels and electroblotted onto a PVDF membrane. After blocking the non-specific protein binding sites with Blocking buffer (per L: 7.5 g Na2HPO4, 1 g NaH2PO4, 5 g BSA and 5 mL Tween 20), the membrane was incubated with patients' sera (diluted 1:10 in Blocking buffer) for more than 6 hours at room temperature. The membrane was washed for at least 30 minutes with Blocking buffer before it was incubated with radiolabeled [^125 I]-anti human IgE (RAST, 5 µCi, MedPro) diluted in Blocking buffer (1:40) overnight at room temperature. After a second 30-minute wash, the membrane was placed onto an imaging plate. The screen was exposed for at least 24 hours and developed using a PhosphoImager Bas-1800 II scanner for detection and the instrument's supporting software (Fujifilm).
nAmb a 1 undergoes spontaneously proteolysis during purification and it is cleaved into two chains, alpha and beta chain, respectively.

VKVLPGGMIKSN (Amb a 1 fragment) [Peptide 50]
reactivity with T cells isolated from allergic individuals [1]: reactivity with T cells
No. positive patients SI > 3 [1]: 5
No. positive patients SI > 5 [1]: 4
% (positive patients SI > 3) [1]: 10.4%
% (positive patients SI > 5) [1]: 8.3%

VLTPVQSAGMIP (Amb a 1 fragment) [Peptide 113]
No. positive patients SI > 3 [1]: 4
No. positive patients SI > 5 [1]: 1
% (positive patients SI > 3) [1]: 8.3%
% (positive patients SI > 5) [1]: 2.1%

VNNNYDRWGTYA (Amb a 1 fragment) [Peptide 88]
reactivity with T cells isolated from allergic individuals [1]: reactivity with T cells
No. positive patients SI > 3 [1]: 10
No. positive patients SI > 5 [1]: 4
% (positive patients SI > 3) [1]: 20.8%
% (positive patients SI > 5) [1]: 8.3%

VNNNYDRWGTYAIGG (Amb a 1 fragment) [Peptide 88-89]
reactivity with T cells isolated from allergic individuals [1]: reactivity with T cells
T cell activating region recognized by % of patients ([1]; classes of prevalence referring to SI>5, 48 TCL): recognized by 12.5%

VQDKGMLATVAF (Amb a 1 fragment) [Peptide 77]
reactivity with T cells isolated from allergic individuals [1]: reactivity with T cells
No. positive patients SI > 3 [1]: 7
No. positive patients SI > 5 [1]: 4
% (positive patients SI > 3) [1]: 14.6%
% (positive patients SI > 5) [1]: 8.3%

VTLGSTHVTISN (Amb a 1 fragment) [Peptide 67]
reactivity with T cells isolated from allergic individuals [1]: reactivity with T cells
No. positive patients SI > 3 [1]: 6
No. positive patients SI > 5 [1]: 2
% (positive patients SI > 3) [1]: 12.5%
% (positive patients SI > 5) [1]: 4.2%

VVNSDKTIDGRG (Amb a 1 fragment) [Peptide 37]
reactivity with T cells isolated from allergic individuals [1]: reactivity with T cells
No. positive patients SI > 3 [1]: 14
No. positive patients SI > 5 [1]: 9
% (positive patients SI > 3) [1]: 29.2%
% (positive patients SI > 5) [1]: 18.8%

WENNRQALADCA (Amb a 1 fragment) [Peptide 13]
No. positive patients SI > 3 [1]: 2
No. positive patients SI > 5 [1]: 0
% (positive patients SI > 3) [1]: 4.2%
% (positive patients SI > 5) [1]: 0.0%

WRGKADWENNRQ (Amb a 1 fragment) [Peptide 11]
No. positive patients SI > 3 [1]: 4
No. positive patients SI > 5 [1]: 2
% (positive patients SI > 3) [1]: 8.3%
% (positive patients SI > 5) [1]: 4.2%

WRSDKDLLENGA (Amb a 1 fragment) [Peptide 106]
No. positive patients SI > 3 [1]: 3
No. positive patients SI > 5 [1]: 1
% (positive patients SI > 3) [1]: 6.3%
% (positive patients SI > 5) [1]: 2.1%

YTVTSNLDDDVA (Amb a 1 fragment) [Peptide 22]
No. positive patients SI > 3 [1]: 4
No. positive patients SI > 5 [1]: 4
% (positive patients SI > 3) [1]: 8.3%
% (positive patients SI > 5) [1]: 8.3%

B1: alpha chain of Amb a 1.3 (modified version 1): recombinant modified (version 1) Amb a 1.3 alpha chain, aa 174-397, 224 amino acids; called alpha chain in Example 4 (protein)
alpha: VLPGGMIKSNDGPPILRQASDGDTINVAGSSQIWIDHCSLSKSFDGLVDVTLGSTHVTISNCKFTQQSKAILLGADDTHVQDKGMLATVAFNMFTDNVDQRMPRCRFGFFQVVNNNYDRWGTYAIGGSSAPTILCQGNRFLAPDDQIKKNVLARTGTGAAESMAWNWRSDKDLLENGAIFVTSGSDPVLTPVQSAGMIPAEPGEAAIKLTSSAGVLSCRPGAPC
modifications: Amb a 1 alpha chain
IgE-binding activity in vitro (ELISA) [2]: low/no IgE-binding activity
reaction of 2 TCC specific for epitopes within Amb a 1-alpha [3]: reacted

B2: beta-chain: recombinant modified (version 1) Amb a 1.3 beta chain, aa 26-173, 148 amino acids; called beta chain in Example 4 (protein)
beta: AEGVGEILPSVNETRSLQACEAYNIIDKCWRGKADWENNRQALADCAQGFAKGTYGGKWGDVYTVTSNLDDDVANPKEGTLRFAAAQNRPLWIIFKNDMVINLNQELVVNSDKTIDGRGVKVEIINGGLTLMNVKNIIIHNINIHDVK
modifications: Amb a 1 beta chain
proliferation, % of the response to Amb a 1 ([3]; 2 TCL with strong reactivity to Amb a 1 (FIG. 20)): 38% and 19%

B3: beta chain: beta chain of naturally processed Amb a 1, N-terminal part, 138 amino acids (protein)
chain: AEGVGEILPSVNETRSLQACEAYNIIDKCWRGKADWENNRQALADCAQGFAKGTYGGKWGDVYTVTSNLDDDVANPKEGTLRFAAAQNRPLWIIFKNDMVINLNQELVVNSDKTIDGRGVKVEIINGGLTLMNVKNIIIHNINIHDVKVLPGGMIKSNDGP
modifications: Amb a 1 beta chain
notes: beta chain of naturally processed Amb a 1, N-terminal part, 138 amino acids
IgE reactivity of the Amb a 1 chains [4]: strongly recognized; also recorded: contains most of the IgE epitopes of Amb a 1
% of patients whose IgE recognized the chain ([4]; chains of nAmb a 1, sera from Italy, Canada and Austria (FIG. 9)): 90%
